Experimental data: patent publication US10369123B2, “Perk activator for the treatment of neurodegenerative diseases” (DEUTSCHES ZENTRUM FÜR NEURODEGENERATIVE ERKRANKUNGEN E.V. …, priority 2014, dated 2019)

How the values were obtained:
PERK = target: T1, PERK (Homo sapiens, UniProt Q9NZJ5); settings: Stockwell et al. 2012; cited from earlier work
T1 sequence (Q9NZJ5 30-1116): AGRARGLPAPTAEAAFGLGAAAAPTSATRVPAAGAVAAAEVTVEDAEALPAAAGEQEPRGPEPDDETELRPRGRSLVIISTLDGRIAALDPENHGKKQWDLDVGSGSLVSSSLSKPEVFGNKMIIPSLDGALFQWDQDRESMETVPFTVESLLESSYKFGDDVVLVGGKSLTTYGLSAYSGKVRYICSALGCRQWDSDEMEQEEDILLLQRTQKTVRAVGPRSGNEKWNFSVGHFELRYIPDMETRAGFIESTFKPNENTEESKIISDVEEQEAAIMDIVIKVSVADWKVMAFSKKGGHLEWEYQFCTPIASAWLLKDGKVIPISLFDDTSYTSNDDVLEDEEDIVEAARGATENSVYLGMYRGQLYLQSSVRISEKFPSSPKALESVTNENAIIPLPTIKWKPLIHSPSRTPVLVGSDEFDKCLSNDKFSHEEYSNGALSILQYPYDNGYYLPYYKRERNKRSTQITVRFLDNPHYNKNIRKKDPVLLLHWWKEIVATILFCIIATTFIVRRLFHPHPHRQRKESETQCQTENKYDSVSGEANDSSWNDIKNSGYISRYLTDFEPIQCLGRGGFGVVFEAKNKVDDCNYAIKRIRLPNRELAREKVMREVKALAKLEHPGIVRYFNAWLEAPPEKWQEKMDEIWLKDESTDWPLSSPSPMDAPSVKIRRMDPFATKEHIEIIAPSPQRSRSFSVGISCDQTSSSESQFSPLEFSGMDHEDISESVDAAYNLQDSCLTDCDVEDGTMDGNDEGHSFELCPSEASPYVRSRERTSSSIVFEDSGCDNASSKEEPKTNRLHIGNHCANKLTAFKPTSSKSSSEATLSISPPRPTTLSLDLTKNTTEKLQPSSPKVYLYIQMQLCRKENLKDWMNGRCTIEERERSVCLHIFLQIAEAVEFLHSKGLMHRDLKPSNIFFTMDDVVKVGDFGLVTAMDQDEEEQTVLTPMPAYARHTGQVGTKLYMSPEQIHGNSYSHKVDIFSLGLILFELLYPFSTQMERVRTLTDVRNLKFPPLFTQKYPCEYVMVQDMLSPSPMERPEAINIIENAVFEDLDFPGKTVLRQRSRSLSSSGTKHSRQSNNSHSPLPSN

tau = experiment: Western blot of tau phosphorylation, 4R-tau overexpression model; assay type: cell-based, human; settings: 4R-tau overexpressing lentivirus 8 days + PERK activator
Description: Nunc™ Nunclon™ Delta 6-well (for protein and mRNA) or 48-well (for cell assays) plates (Thermo Fisher Scientific, Waltham, Mass., USA) were coated with 100 μg/ml poly-L-lysine (Sigma-Aldrich, St. Louis, Mo., USA) and 5 μg/ml fibronectin (Sigma-Aldrich). LUHMES (Lund Human Mesencephalic) cells, derived from human embryonic ventral mesencephalic cells by conditional immortalization (Tet-off v-myc over-expression) were seeded out in a concentration of 130,000 cells/cm^2 to achieve a confluence of 50%. They were then differentiated for 8 days in a medium of DMEM/F12 (Sigma-Aldrich), 1 μg/ml tetracycline, […] and 490 μg/ml dbcAMP into post-mitotic neurons with a dopaminergic phenotype (Lotharius et al. 2005).
For all experiments with annonacin, the medium was replaced during the intoxication period with new medium containing glucose levels reduced to 250 μM, i.e. the physiological concentration in the human brain.
Concentrated lentiviral particles were titrated by transducing LUHMES cells with different dilutions at 6 hours after initiating differentiation. The lowest dilution at which at least 90% of cells expressed the transgene (as determined by immunohistochemistry of the cells fixed on day 2 post differentiation) was chosen for subsequent experiments. For these, concentrated lentiviral particles were again added into the medium on day 0, 6 hours after initiating differentiation.
Protein was extracted by scraping the cells from the culture plate with Mammalian Protein Extraction Reagent (M-PER, Thermo Fisher Scientific) and 1× cOmplete Protease Inhibitor Cocktail Tablets (Hoffmann-La Roche, Basel, Switzerland) and 1× PhosSTOP Phosphatase Inhibitor Cocktail Tablets (Hoffmann-La Roche). For pNRF2 blots, cells were extracted with 2% SDS tris-buffer instead of M-PER in order to obtain whole cell extracts and not to lose the nuclear fraction. […] Protein concentrations were determined using the BCA kit (Thermo Fisher Scientific) by heating the samples at 60° C. for 30 min and measuring the absorption on the NanoDrop 2000c Spectrophotometer (Thermo Fisher Scientific). […]

In the case of `CCN(CC)CCC(=O)N1N=C(c2c(-c3ccccc3)c3cc(Br)ccc3[nH]c2=O)CC1c1ccc(Br)cc1` (centres unmarked) [CCT020312, 6-bromo-3-[5-(4-bromo-phenyl)-1-(3-diethylamino-propionyl)-4,5-dihydro-1H-pyrazol-3-yl]-4-phenyl-1H-quinolin-2-one], the EIF2A phosphorylation (PERK) is given as “increase”, the “other arms of the UPR” value (PERK) is given as “remained unaffected” and the AD2-positive tau (tau) is given as “not altered”. For the same compound, the “CP13 (Ser-202) phosphorylated tau” value (tau) was “significantly reduced” and the HT7-positive tau (tau) was “not altered”.
